Read-outs that look alike come from different tables or passages of the source.
Key:
[1] = biological target: GSK3α (GST-full length GSK3α) (Homo sapiens (Human), UniProt P49840); assay: GSK3α TR-FRET kinase assay; type: biochemical
Experimental: (§1) TR-FRET Assay: The assay was performed in a white, 384 well, low volume, flat bottom plate (Grenier). After a 30 minute preincubation in assay buffer with the indicated concentration of compound, the kinase activity was initiated by the addition of the substrates. 1 nM GSK3α (GST-full length GSK3α [SignalChem G08-10G]) or 1 nM GSK3b (GST-full length GSK3b: [SignalChem G08-9G]) were then incubated at ambient temperature for 100 minutes in 10 μL of 50 mM Tris, pH 7.5, 20 mM MgCl2, 0.05 mM DTT, 100 μg/mL BSA and 1% DMSO, with 200 nM biotinylated peptide substrate (biotinylated and S645 phosphorylated glycogen synthase 631-650) and either 4 μM ATP (GSK3α, Table 16) or 2 μM ATP (GSK3b, Table 16) or 1 mM ATP (Table 17). The kinase activity was quenched with 2 μL of 250 mM EDTA. A 10 μL volume of 40 nM Strepavidin-d2, 2 nM Tb^2+-pSer641 antibody in TR-FRET Detection Buffer (Invitrogen) was then added. After 60 min at room temperature the plate was read on Envision plate reader using Ex: 340 nm, Em: 615 nm and […]. The normalized 665/615 Signal ratio versus log compound concentration was analyzed by XLFIT to yield IC50 values.

[2] = biological target: GSK3b (GST-full length GSK3b) (Homo sapiens (Human), UniProt P49841); assay: GSK3b TR-FRET kinase assay; type: biochemical
Sequence of GSK3b (GST-full length GSK3b) (P49841 whole entry): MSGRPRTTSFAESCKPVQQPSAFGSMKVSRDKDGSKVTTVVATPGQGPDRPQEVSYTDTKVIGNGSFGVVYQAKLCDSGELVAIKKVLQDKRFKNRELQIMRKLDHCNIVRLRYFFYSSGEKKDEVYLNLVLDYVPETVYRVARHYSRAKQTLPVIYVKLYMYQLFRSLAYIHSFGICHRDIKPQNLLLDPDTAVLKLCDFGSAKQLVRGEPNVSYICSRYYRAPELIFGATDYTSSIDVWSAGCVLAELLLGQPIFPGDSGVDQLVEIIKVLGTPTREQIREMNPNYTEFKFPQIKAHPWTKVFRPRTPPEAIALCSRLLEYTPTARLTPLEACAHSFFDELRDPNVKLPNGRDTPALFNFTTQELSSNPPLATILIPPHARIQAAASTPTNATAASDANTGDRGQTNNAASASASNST
Experimental: as §1

[3] = 1 nM GSK3α, 4 μM ATP, 30 minute preincubation, geometric mean, read-out: GSK3-A TR-FRET BIOCHEMICAL (TR-FRET), GMean, IC50
[4] = 1 nM GSK3b, 2 μM ATP, 30 minute preincubation, geometric mean, read-out: GSK3-B TR-FRET BIOCHEMICAL (TR-FRET), GMean, IC50
[5] = 1 nM GSK3α, 4 μM ATP, 30 minute preincubation, Table 16, read-out: GSK3-A TR-FRET BIOCHEMICAL (TR-FRET)
[6] = GSK3-A (TR-FRET 1 mM ATP), GMean, IC50, 1 mM ATP, geometric mean
[7] = 1 nM GSK3b, 2 μM ATP, 30 minute preincubation, Table 16, read-out: GSK3-B TR-FRET BIOCHEMICAL (TR-FRET)
[8] = GSK3-B (TR-FRET 1 mM ATP), GMean, IC50, 1 mM ATP, geometric mean
[9] = 1 nM GSK3α, 4 μM ATP, 30 minute preincubation, Table 16, read-out: GSK3-A TR-FRET BIOCHEMICAL (TR-FRET), IC50
[10] = 1 nM GSK3b, 2 μM ATP, 30 minute preincubation, Table 16, read-out: GSK3-B TR-FRET BIOCHEMICAL (TR-FRET), IC50
[11] = 1 nM GSK3α, 4 μM ATP, 30 minute preincubation, read-out: GSK3-A TR-FRET BIOCHEMICAL (TR-FRET), IC50
[12] = 1 nM GSK3b, 2 μM ATP, 30 minute preincubation, read-out: GSK3-B TR-FRET BIOCHEMICAL (TR-FRET), IC50
[13] = read-out: GSK3-A (TR-FRET 1 mM ATP), GMean, IC50, 1 mM ATP, geometric mean
[14] = read-out: GSK3-B (TR-FRET 1 mM ATP), GMean, IC50, 1 mM ATP, geometric mean

Sequence of GSK3α (GST-full length GSK3α) (P49840 whole entry): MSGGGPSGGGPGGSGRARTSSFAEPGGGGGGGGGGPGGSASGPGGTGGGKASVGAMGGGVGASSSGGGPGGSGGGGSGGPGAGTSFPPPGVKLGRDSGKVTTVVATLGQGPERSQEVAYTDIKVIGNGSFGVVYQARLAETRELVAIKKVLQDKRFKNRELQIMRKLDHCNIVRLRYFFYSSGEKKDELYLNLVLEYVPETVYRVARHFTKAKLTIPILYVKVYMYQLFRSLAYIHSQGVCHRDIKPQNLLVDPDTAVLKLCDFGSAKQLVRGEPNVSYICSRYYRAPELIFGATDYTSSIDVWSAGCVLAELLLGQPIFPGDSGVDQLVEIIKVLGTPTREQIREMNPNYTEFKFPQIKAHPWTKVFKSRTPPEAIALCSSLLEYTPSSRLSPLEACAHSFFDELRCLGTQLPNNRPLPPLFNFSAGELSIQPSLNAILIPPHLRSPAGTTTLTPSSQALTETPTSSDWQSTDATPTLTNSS

CC[C@@]1(c2cccc(C(F)F)c2)C2=C(CC(C)(C)NC2=O)Nc2n[nH]cc21 [Compound 949007]
IC50 [1, 3]: 1000 to 5000 nM
IC50 [2, 4]: > 5000 nM

CC[C@]1(c2cccc(N3CCOCC3)c2)C2=C(CC(C)(C)NC2=O)Nc2n[nH]c(C(F)(F)F)c21 [Compound 949000]
IC50 [1, 3]: 100 to 1000 nM
IC50 [2, 4]: 100 to 1000 nM

CCC1(c2cccc(-c3ccnc(C)c3F)c2)C2=C(CC(C)(C)NC2=O)Nc2n[nH]c(C(F)(F)F)c21 (stereo not drawn) [Compound 948297]
IC50 [1, 3]: ≤ 100 nM
IC50 [2, 4]: ≤ 100 nM

CC1(C)CC(=O)C2=C(C1)Nc1n[nH]cc1C21CCN(S(=O)(=O)c2ccccc2F)CC1 [Compound 901465]
IC50 [1, 5]: ≤ 100 nM
IC50 [1, 6]: ≤ 100 nM
IC50 [2, 7]: ≤ 100 nM
IC50 [2, 8]: 100 to 1000 nM

CCC1(c2cccc(-c3c(C)cnc4ccccc34)c2)C2=C(CC(C)(C)NC2=O)Nc2n[nH]cc21 (stereo not drawn) [Compound 949398]
IC50 [1, 9]: ≤ 100 nM
IC50 [2, 10]: 100 to 1000 nM

CC1(C)CC(=O)C2=C(C1)Nc1n[nH]cc1[C@@]21CO[C@@H](C2CC2)C1 [Compound 913442]
IC50 [1, 5]: 100 to 1000 nM
IC50 [2, 7]: 100 to 1000 nM

CC[C@]1(c2cccc(C(F)(F)F)c2)C2=C(CCN(c3ccccc3)C2=O)Nc2n[nH]cc21 [Compound 929475]
IC50 [1, 11]: > 5000 nM
IC50 [2, 12]: > 5000 nM

CCC1(c2cccc(-c3c(F)cncc3OC)c2)C2=C(CC(C)(C)NC2=O)Nc2n[nH]cc21 (stereo not drawn) [Compound 948145]
IC50 [1, 3]: 100 to 1000 nM
IC50 [2, 4]: > 5000 nM

CC[C@@]1(c2cccc(-c3c(C)nn(C)c3C)c2)C2=C(CC(C)(C)NC2=O)Nc2n[nH]cc21 [Compound 947413]
IC50 [1, 3]: 1000 to 5000 nM
IC50 [2, 4]: > 5000 nM

CC[C@]1(c2cccc(C(F)(F)F)c2)C2=C(CCN(c3cn(C)c(C)n3)C2=O)Nc2n[nH]cc21 [Compound 952479]
IC50 [1, 9]: > 5000 nM
IC50 [2, 10]: > 5000 nM

CCC1(c2cccc(C(F)F)c2)C2=C(CC(C)(C)NC2=O)Nc2n[nH]cc21 (stereo not drawn) [Compound 947864]
IC50 [1, 3]: ≤ 100 nM
IC50 [2, 4]: 100 to 1000 nM

CCC1(c2cccc(C)c2)C2=C(CC(C)(C)CC2=O)Nc2n[nH]cc21 (stereo not drawn) [Compound 785738]
IC50 [1, 3]: ≤ 100 nM
IC50 [2, 4]: 100 to 1000 nM

O=C1C[C@]2(CCOC2)CC2=C1C1(CCOCC1)c1c[nH]nc1N2 [Compound 901476]
IC50 [1, 5]: 100 to 1000 nM
IC50 [2, 7]: 100 to 1000 nM

CCC1(c2cccc(-c3ccnc(C)c3)c2)C2=C(CC3(CCCOC3)NC2=O)Nc2n[nH]cc21 (stereo not drawn) [Compound 948153]
IC50 [1, 3]: > 5000 nM
IC50 [2, 4]: > 5000 nM

CCC1(c2cccc(-c3c(F)cncc3OC)c2)C2=C(Nc3n[nH]cc31)C(F)C(C)(C)CC2=O (stereo not drawn) [Compound 948545, 4-ethyl-8-fluoro-4-(3-(3-fluoro-5-methoxypyridin-4-yl)phenyl)-7,7-dimethyl-2,4,6,7,8,9-hexahydro-SH-pyrazolo[3,4-b]quinolin-5-one]
IC50 [1, 5]: ≤ 100 nM
IC50 [1, 13]: ≤ 100 nM
IC50 [2, 7]: ≤ 100 nM
IC50 [2, 14]: 100 to 1000 nM

CCC1(c2cc(N3CCOCC3)ccc2F)C2=C(CC(C)(C)CC2=O)Nc2n[nH]cc21 (stereo not drawn) [Compound 909203]
IC50 [1, 9]: 100 to 1000 nM
IC50 [2, 10]: 1000 to 5000 nM

CC1(C)CC(=O)C2=C(C1)Nc1n[nH]cc1C21CCN(S(=O)(=O)C2CCOCC2)CC1 [Compound 913127]
IC50 [1, 9]: ≤ 100 nM
IC50 [1, 6]: ≤ 100 nM
IC50 [2, 10]: ≤ 100 nM
IC50 [2, 8]: 100 to 1000 nM

CC[C@]1(c2cccc(C(F)(F)F)c2)C2=C(CCN(c3cc(C)n(C)n3)C2=O)Nc2n[nH]cc21 [Compound 951954]
IC50 [1, 9]: > 5000 nM
IC50 [2, 10]: > 5000 nM

CC[C@]1(C)C2=C(CC(C)(C)CC2=O)Nc2n[nH]cc21 [Compound 884019]
IC50 [1, 9]: 100 to 1000 nM
IC50 [2, 10]: 1000 to 5000 nM

CC[C@]1(c2cccc(-c3ccncc3C)c2)C2=C(CC(C)(C)NC2=O)Nc2n[nH]c(C)c21 [Compound 947409]
IC50 [1, 3]: 1000 to 5000 nM
IC50 [2, 4]: > 5000 nM

CCC1(c2cccc(-c3cnn(C)c3C)c2)C2=C(CC(C)(C)NC2=O)Nc2n[nH]c(C)c21 (stereo not drawn) [Compound 944028]
IC50 [1, 11]: ≤ 100 nM
IC50 [2, 12]: 100 to 1000 nM

CC[C@]1(c2cccc(-c3cnn(C)c3)c2)C2=C(CC(C)(C)NC2=O)Nc2n[nH]c(F)c21 [Compound 949002]
IC50 [1, 3]: 1000 to 5000 nM
IC50 [2, 4]: > 5000 nM

CCC1(c2cccc(N3CCCCC3)c2)C2=C(CC(C)(C)NC2=O)Nc2n[nH]cc21 (stereo not drawn) [Compound 947566]
IC50 [1, 3]: 1000 to 5000 nM
IC50 [2, 4]: 1000 to 5000 nM

CC[C@@]1(c2cccc(-c3ccncc3F)c2)C2=C(CC(C)(C)NC2=O)Nc2[nH]nc(C(F)(F)F)c21 [Compound 948777]
IC50 [1, 3]: ≤ 100 nM
IC50 [2, 4]: ≤ 100 nM

CC[C@]1(c2ccccc2)C2=C(CC(C)(C)[C@H](F)C2=O)Nc2n[nH]cc21 [Compound 957403]
IC50 [1, 5]: 100 to 1000 nM
IC50 [2, 7]: 1000 to 5000 nM

CCC1(c2cccc(-c3ccnc(N4CCOCC4)c3)c2)C2=C(CC(C)(C)NC2=O)Nc2n[nH]cc21 (stereo not drawn) [Compound 948653]
IC50 [1, 3]: ≤ 100 nM
IC50 [2, 4]: ≤ 100 nM

CC[C@]1(c2cccc(-c3cc(C)nn3C)c2)C2=C(CC(C)(C)NC2=O)Nc2n[nH]cc21 [Compound 943967]
IC50 [1, 11]: > 5000 nM
IC50 [2, 12]: > 5000 nM

CCC1(c2cccc(-c3c(C)nn(C)c3C)c2)C2=C(CC(C)(C)CC2=O)Nc2n[nH]c(C)c21 (stereo not drawn) [Compound 913026]
IC50 [1, 9]: 100 to 1000 nM
IC50 [2, 10]: 100 to 1000 nM

CC[C@]1(c2cccc(-c3cc(C)ncc3F)c2)C2=C(CC(C)(C)NC2=O)Nc2n[nH]c(C(F)(F)F)c21 [Compound 949644]
IC50 [1, 9]: 100 to 1000 nM
IC50 [2, 10]: 1000 to 5000 nM

CC[C@@]1(c2cccc(C(F)(F)F)c2)C2=C(CCN(C(C)(C)C)C2=O)Nc2n[nH]cc21 [Compound 945633]
IC50 [1, 11]: > 5000 nM
IC50 [2, 12]: > 5000 nM

CCC1(c2ccccc2)C2=C(CC(C)(C)CC2=O)Nc2n[nH]c(C(F)F)c21 (stereo not drawn) [Compound 874510]
IC50 [1, 3]: ≤ 100 nM
IC50 [1, 13]: 100 to 1000 nM
IC50 [2, 4]: ≤ 100 nM
IC50 [2, 14]: 100 to 1000 nM

CC[C@]1(c2cccc(C(F)(F)F)c2)C2=C(CCN(c3ccc(OC)cc3)C2=O)Nc2n[nH]cc21 [Compound 948227]
IC50 [1, 3]: 1000 to 5000 nM
IC50 [2, 4]: > 5000 nM

CC[C@@]1(c2cccc(-c3ccncc3F)c2)C2=C(CC(C)(C)NC2=O)Nc2n[nH]c(C)c21 [Compound 947821]
IC50 [1, 3]: ≤ 100 nM
IC50 [2, 4]: ≤ 100 nM

CC[C@]1(c2ccccc2)C2=C(C[C@@]3(CCNC3=O)CC2=O)Nc2n[nH]cc21 [Compound 950160]
IC50 [1, 5]: 1000 to 5000 nM
IC50 [2, 7]: > 5000 nM

CC[C@]1(c2cccc(S(C)(=O)=O)c2)C2=C(CC(C)(C)CC2=O)Nc2n[nH]cc21 [Compound 826719]
IC50 [1, 3]: 1000 to 5000 nM
IC50 [2, 4]: > 5000 nM

CCC1(c2cccc(-c3cc(C)nnc3C)c2)C2=C(CC(C)(C)NC2=O)Nc2n[nH]c(C(F)(F)F)c21 (stereo not drawn) [Compound 949910]
IC50 [1, 9]: ≤ 100 nM
IC50 [2, 10]: ≤ 100 nM

COc1cccc(C2(C)C3=C(CC(C)(C)CC3=O)Nc3n[nH]cc32)c1 (stereo not drawn) [Compound 792342]
IC50 [1, 3]: 100 to 1000 nM
IC50 [2, 4]: 100 to 1000 nM

CC[C@]1(c2cccc(-c3cnn4c3CCCC4)c2)C2=C(CC(C)(C)NC2=O)Nc2n[nH]c(C)c21 [Compound 947809]
IC50 [1, 3]: 100 to 1000 nM
IC50 [2, 4]: 1000 to 5000 nM

— patent US20250313563A1, “GLYCOGEN SYNTHASE KINASE 3 INHIBITORS AND USES THEREOF” (The Broad Institute, Inc., priority 2022, published 2025)
